Source: patent publication US20260014122A1, “DRUG FOR LOWERING BLOOD LDL CHOLESTEROL” (KOWA COMPANY, LTD., priority 2022, published 2026)

Test system: patient of a nonalcoholic fatty liver disease (NAFLD)
Experiment: Effect of compound A on blood LDL-C and cholesterol synthesis/absorption markers in NAFLD patients, compared with placebo
Format: in vivo, human
Settings: for fasting blood LDL-C concentration (rate of change from baseline): FIG. 1
[1] = NAFLD patients, 0.4 mg per day oral, 8 weeks, vs placebo, FIG. 3

CC[C@@H](Oc1cccc(CN(CCCOc2ccc(OC)cc2)c2nc3ccccc3o2)c1)C(=O)O [compound A, (R)-2-[3-[[N-(benzoxazol-2-yl)-N-3-(4-methoxyphenoxy)propyl]aminomethyl]phenoxy]butyric acid]
fasting blood LDL-C concentration (rate of change from baseline) (NAFLD patients who did not take any existing agent for reducing LDL-C, 0.4 mg per day oral, 12 weeks, vs placebo): reduced a fasting blood LDL-C concentration as compared to the placebo administration
fasting blood LDL-C concentration (rate of change from baseline) (NAFLD patients, entire group including patients taking an existing agent for reducing LDL-C, 0.4 mg per day oral (0.2 mg twice a day), 12 weeks, vs placebo): reduced a fasting blood LDL-C concentration as compared to the placebo administration
fasting blood concentration of campesterol (absorption marker for cholesterol), rate of change from baseline [1]: reduced the fasting blood concentration of sitosterol and the fasting blood concentration of campesterol
fasting blood concentration of lathosterol (synthesis marker for cholesterol), rate of change from baseline [1]: reduced the fasting blood concentration of lathosterol
fasting blood concentration of sitosterol (absorption marker for cholesterol), rate of change from baseline [1]: reduced the fasting blood concentration of sitosterol
reducing effect on LDL-C for each initial value of the blood LDL-C (NAFLD patients, 0.4 mg per day oral, 12 weeks, FIG. 2): became larger as the blood LDL-C concentration before the administration thereof increased
